Where “and” joins values, the source holds several entries; their conditions need not be identical. Equal values may be shown once. Read-outs that look alike come from different tables or passages of the source. Blank lines part the entries; values can stand above or below the molecule they belong to.
Columns and labels:
[1] = test system: UGT enzymes of human liver microsomes; assay: Inhibition of 7-HFC glucuronidation in human liver microsomes; format: biochemical; settings: 7-HFC 50 μM, human liver microsomes 100 μg/ml, 15 min
[2] = test system: T1, UGT enzymes of human liver microsomes; assay: as above; format: biochemical; settings: for % of control metabolism (SD, n = 3), 7-HFC glucuronidation: 7-HFC 50 μM, human liver microsomes 100 μg/ml, 15 min
T1 construct: percentage of control metabolism, 7-HFC glucuronidation; percentage of control metabolism, 7-HFC glucuronidation

[3] = test system: UGT enzymes of human liver microsomes; assay: Inhibition of raloxifene glucuronidation (G1, G2) in human liver microsomes; format: biochemical
Text: Compounds were eluted using a binary solvent gradient system. […] Solvent B was methanol. […] Detection was at 280 nm.

[4] = humans; cited from earlier work
[5] = target: T2, UGT enzymes of human liver microsomes (Homo sapiens, UniProt P16662); assay: Inhibition of zidovudine glucuronidation in human liver microsomes; format: biochemical; settings: liver lot 062101
T2 construct: residual metabolism (percentage of control), zidovudine glucuronidation; other: liver lot 062101; residual metabolism (percentage of control), zidovudine glucuronidation; residual metabolism (percentage of control)
T2 sequence (P16662 1-529): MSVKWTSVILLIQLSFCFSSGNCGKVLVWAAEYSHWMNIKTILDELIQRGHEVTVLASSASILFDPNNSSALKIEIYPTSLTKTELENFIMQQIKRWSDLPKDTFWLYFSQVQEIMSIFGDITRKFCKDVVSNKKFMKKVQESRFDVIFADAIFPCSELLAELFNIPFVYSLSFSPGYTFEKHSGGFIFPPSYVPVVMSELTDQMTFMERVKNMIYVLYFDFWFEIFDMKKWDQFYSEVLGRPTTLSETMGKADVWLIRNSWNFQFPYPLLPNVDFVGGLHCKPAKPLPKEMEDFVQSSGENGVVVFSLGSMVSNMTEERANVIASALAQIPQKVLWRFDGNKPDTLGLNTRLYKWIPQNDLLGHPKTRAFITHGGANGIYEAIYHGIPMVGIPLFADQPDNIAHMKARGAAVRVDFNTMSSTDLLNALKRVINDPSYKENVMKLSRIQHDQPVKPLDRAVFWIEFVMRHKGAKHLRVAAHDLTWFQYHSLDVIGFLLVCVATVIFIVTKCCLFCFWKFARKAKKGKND
Method: Compounds were eluted using a binary solvent gradient system where solvent A was dilute phosphoric acid (pH 3) and solvent B was acetonitrile.
Standardized incubations utilized 500 μM zidovudine substrate, 1 mg/ml microsomal protein, 5 mM UDPGA and a 30 min incubation time. […] Int.

[6] = test system: UGT enzymes of pooled human jejunum microsomes; assay: Inhibition of zidovudine glucuronidation in pooled human jejunum microsomes; format: biochemical
Method: Increasing the microsomal protein concentration to 1 mg/ml and extending the incubation time to 60 min provided meaningful metabolite levels for inhibition studies.

[7] = test system: T3, UGT enzymes of human liver microsomes; assay: Inhibition of 2ME2 glucuronidation (MG1, MG2) in human liver microsomes; format: biochemical; settings: liver 062101, 2ME2 50 μM
T3 construct: other: liver 062101
Text: (§1) Compounds were eluted using a binary solvent gradient system where solvent A was dilute phosphoric acid (pH 3) and solvent B was 80:20 acetonitrile-methanol. […] Detection was at 280 nm.

[8] = test system: UGT enzymes of pooled human jejunum microsomes; assay: Inhibition of 2ME2 glucuronidation (MG1) in pooled human jejunum microsomes; format: biochemical; settings: jejunum HJ61, 2ME2 50 μM
Text: as §1

UGT1A1 = target: T4, UGT1A1 (Homo sapiens, UniProt P22309); assay: Inhibition of raloxifene glucuronidation by recombinant UGT1A1 Supersomes; settings: for Inhibition of raloxifene glucuronidation, G1, UGT1A1 / Inhibition of raloxifene glucuronidation, G2, UGT1A1: raloxifene 50 μM, 250 μg/ml Supersomes, 1 mM UDPGA, 15 min; for % of control metabolism, raloxifene G1 / % of control metabolism, raloxifene G2: UGT1A1
T4 sequence (P22309 26-533): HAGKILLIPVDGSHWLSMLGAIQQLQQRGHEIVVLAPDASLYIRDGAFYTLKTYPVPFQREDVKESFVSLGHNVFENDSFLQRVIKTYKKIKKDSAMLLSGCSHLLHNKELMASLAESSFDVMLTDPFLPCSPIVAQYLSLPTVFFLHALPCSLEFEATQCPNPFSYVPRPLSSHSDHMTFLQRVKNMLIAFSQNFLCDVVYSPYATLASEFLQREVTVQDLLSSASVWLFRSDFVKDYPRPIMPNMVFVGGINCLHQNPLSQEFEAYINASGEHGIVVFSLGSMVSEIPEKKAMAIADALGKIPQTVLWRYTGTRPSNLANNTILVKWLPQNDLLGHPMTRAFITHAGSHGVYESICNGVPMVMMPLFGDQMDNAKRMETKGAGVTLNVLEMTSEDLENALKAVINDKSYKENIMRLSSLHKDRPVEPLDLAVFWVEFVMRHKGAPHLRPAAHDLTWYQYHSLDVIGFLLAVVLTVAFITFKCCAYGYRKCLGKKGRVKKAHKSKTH
Method: Compounds were eluted using a binary solvent gradient system. Solvent A was water brought to pH 8 with NH4OH. Solvent B was methanol. Solvent flow rate was 1 ml/min and the column temperature was maintained at 50° C. Detection was at 280 nm. […] The system was then returned to the initial conditions and equilibrated for 3 min.

[9] = G1, inhibitor 500 μM, raloxifene 50 μM, human liver microsomes 250 μg/ml, 15 min
[10] = G2, inhibitor 500 μM, raloxifene 50 μM, human liver microsomes 250 μg/ml, 15 min
[11] = raloxifene 50 μM, inhibitor 25 μM
[12] = raloxifene 50 μM, inhibitor 50 μM
[13] = raloxifene 50 μM, inhibitor 100 μM
[14] = inhibitor column headed only "μM" (between 25 μM and 5 μM)

% of control metabolism (SD, n = 3), 7-HFC glucuronidation ([1]; inhibitor 1000 μM): 47 (1) % | % of control metabolism (SD, n = 3), 7-HFC glucuronidation ([1]; inhibitor 2000 μM): 35 (1) % | % of control metabolism (SD, n = 3), 7-HFC glucuronidation ([2]; inhibitor 100 μM): 84 (1) % | % of control metabolism (SD, n = 3), 7-HFC glucuronidation ([2]; inhibitor 200 μM): 75 (2) % | % of control metabolism (SD, n = 3), 7-HFC glucuronidation ([2]; inhibitor 500 μM): 64 (0), % and 63 (1) % | % of control metabolism (SD, n = 3), raloxifene glucuronide G1 [3, 9]: 92 (2) % | % of control metabolism (SD, n = 3), raloxifene glucuronide G2 [3, 10]: 94 (2) %
Structure (SMILES): O=C(O)c1ccccc1O [Salicylic acid]

Structure (SMILES): CCc1c2c(nc3ccc(OC(=O)N4CCC(N5CCCCC5)CC4)cc13)-c1cc3c(c(=O)n1C2)COC(=O)[C@]3(O)CC [irinotecan]
absolute oral bioavailability [4]: approximately 13%

Structure (SMILES): CC(C)[C@@H]1CC[C@@H](C)C[C@H]1O [(L)-Menthol]
% of control metabolism (SD, n = 3), 7-HFC glucuronidation ([1]; inhibitor 1000 μM): 72 (1) % | % of control metabolism (SD, n = 3), 7-HFC glucuronidation ([1]; inhibitor 2000 μM): 53 (0) % | % of control metabolism (SD, n = 3), 7-HFC glucuronidation ([2]; inhibitor 500 μM): 75 (2), % and 80 (2) % | % of control metabolism (SD, n = 3), raloxifene glucuronide G1 [3]: 108 (4) % | % of control metabolism (SD, n = 3), raloxifene glucuronide G2 [3]: 97 (2) %

residual metabolism (percentage of control), zidovudine glucuronidation ([5]; inhibitor 200 μM): 63 (6) % | residual metabolism (percentage of control), zidovudine glucuronidation ([5]; inhibitor 500 μM): 43 (1) % and 37 (4) % | residual metabolism (percentage of control), zidovudine glucuronidation ([5]; inhibitor 1000 μM): 25 (2) % | residual metabolism (percentage of control), zidovudine ([6]; inhibitor 500 μM): 32 (3) % | residual metabolism (% of control), 2ME2 MG1 ([7]; inhibitor 50 μM): 96 (2) % | residual metabolism (% of control), 2ME2 MG2 ([7]; inhibitor 50 μM): 86 (1) % | residual metabolism (% of control), 2ME2 MG1 ([7]; inhibitor 100 μM): 92 (2) % | residual metabolism (% of control), 2ME2 MG2 ([7]; inhibitor 100 μM): 74 (3) % | residual metabolism (% of control), 2ME2 MG1 ([8]; inhibitor 50 μM): 98 (4) % | residual metabolism (% of control), 2ME2 MG1 ([8]; inhibitor 100 μM): 125 (7) %
Structure (SMILES): CC1CCC(C(C)C)C(O)C1 (stereo not shown) [Menthol]

% of control metabolism (SD, n = 3), 7-HFC glucuronidation ([1]; inhibitor 1000 μM): 32 (1) % | % of control metabolism (SD, n = 3), 7-HFC glucuronidation ([1]; inhibitor 2000 μM): 26 (1) % | % of control metabolism (SD, n = 3), 7-HFC glucuronidation ([2]; inhibitor 100 μM): 86 (2) % | % of control metabolism (SD, n = 3), 7-HFC glucuronidation ([2]; inhibitor 200 μM): 72 (2) % | % of control metabolism (SD, n = 3), 7-HFC glucuronidation ([2]; inhibitor 500 μM): 53 (2), % and 53 (1) % | % of control metabolism (SD, n = 3), raloxifene glucuronide G1 [3, 9]: 76 (1) % | % of control metabolism (SD, n = 3), raloxifene glucuronide G2 [3, 10]: 69 (0) %
Structure (SMILES): CC(=O)OC1CC(C)CCC1C(C)C (single isomer, unassigned; (-)) [(−)-Menthyl acetate]

Structure (SMILES): C[C@H](CCc1ccccc1)NC[C@H](O)c1ccc(O)c(C(N)=O)c1 [dilevalol]
absolute oral bioavailability [4]: 11-29%

Structure (SMILES): C#C[C@]1(O)CC[C@H]2[C@@H]3CCc4cc(O)ccc4[C@H]3CC[C@@]21C [17-α-Ethinylestradiol, 17-α-ethinylestradiol, reference compound]
percentage of control metabolism, 7-HFC glucuronidation ([2]; inhibitor 500 μM): 72 (1) % | % of control metabolism (SD, n = 3), 7-HFC glucuronidation ([2]; inhibitor 500 μM): 72 (1) % | % of control metabolism (SD, n = 3), raloxifene glucuronide G1 ([3]; G1, inhibitor 25 μM, raloxifene 50 μM, human liver microsomes 250 μg/ml, 15 min): 66 (3) % | % of control metabolism (SD, n = 3), raloxifene glucuronide G1 ([3]; G1, inhibitor 50 μM, raloxifene 50 μM, human liver microsomes 250 μg/ml, 15 min): 42 (2) % | % of control metabolism (SD, n = 3), raloxifene glucuronide G1 ([3]; G1, inhibitor 100 μM, raloxifene 50 μM, human liver microsomes 250 μg/ml, 15 min): 31 (2) % | % of control metabolism (SD, n = 3), raloxifene glucuronide G1 [3, 9]: 2 (0) % | % of control metabolism (SD, n = 3), raloxifene glucuronide G2 ([3]; G2, inhibitor 25 μM, raloxifene 50 μM, human liver microsomes 250 μg/ml, 15 min): 80 (3) % | % of control metabolism (SD, n = 3), raloxifene glucuronide G2 ([3]; G2, inhibitor 50 μM, raloxifene 50 μM, human liver microsomes 250 μg/ml, 15 min): 60 (2) % | % of control metabolism (SD, n = 3), raloxifene glucuronide G2 ([3]; G2, inhibitor 100 μM, raloxifene 50 μM, human liver microsomes 250 μg/ml, 15 min): 56 (3) % | % of control metabolism (SD, n = 3), raloxifene glucuronide G2 [3, 10]: 6 (0) % | % of control metabolism, raloxifene G1 [3, 11]: 66 (3) % | % of control metabolism, raloxifene G2 [3, 11]: 80 (3) % | % of control metabolism, raloxifene G1 [3, 12]: 42 (2) % | % of control metabolism, raloxifene G2 [3, 12]: 60 (2) % | % of control metabolism, raloxifene G1 [3, 13]: 31 (2) % | % of control metabolism, raloxifene G2 [3, 13]: 56 (3) % | residual metabolism (percentage of control), zidovudine glucuronidation ([5]; inhibitor 50 μM): 54 (2) % | residual metabolism (percentage of control), zidovudine glucuronidation ([5]; inhibitor 100 μM): 40 (2) % | residual metabolism (percentage of control), zidovudine glucuronidation ([5]; inhibitor 200 μM): 24 (1) % | residual metabolism (percentage of control), zidovudine glucuronidation ([5]; inhibitor 500 μM): 13 (1) % and 10 (1) % | residual metabolism (percentage of control), zidovudine ([6]; inhibitor 100 μM): 30 (1) % | residual metabolism (% of control), 2ME2 MG1 ([7]; inhibitor 25 μM): 74 (1) % | residual metabolism (% of control), 2ME2 MG2 ([7]; inhibitor 25 μM): 62 (1) % | residual metabolism (% of control), 2ME2 MG1 ([7]; inhibitor 50 μM): 64 (2) % | residual metabolism (% of control), 2ME2 MG2 ([7]; inhibitor 50 μM): 41 (3) % | residual metabolism (% of control), 2ME2 MG1 ([7]; inhibitor 100 μM): 48 (0) % | residual metabolism (% of control), 2ME2 MG2 ([7]; inhibitor 100 μM): 4 (0) % | residual metabolism (% of control), 2ME2 MG1 ([8]; inhibitor 50 μM): 109 (5) % | residual metabolism (% of control), 2ME2 MG1 ([8]; inhibitor 100 μM): 99 (2) % | Inhibition of raloxifene glucuronidation, G1, UGT1A1 (UGT1A1; inhibitor 25 μM): 53 (0) | Inhibition of raloxifene glucuronidation, G1, UGT1A1 (UGT1A1; inhibitor 50 μM): 33 (1) | Inhibition of raloxifene glucuronidation, G1, UGT1A1 (UGT1A1; [14]): 81 (0) | Inhibition of raloxifene glucuronidation, G2, UGT1A1 (UGT1A1; inhibitor 25 μM): 72 (1) | Inhibition of raloxifene glucuronidation, G2, UGT1A1 (UGT1A1; inhibitor 50 μM): 58 (3) | Inhibition of raloxifene glucuronidation, G2, UGT1A1 (UGT1A1; [14]): 91 (1) | % of control metabolism, raloxifene G1 (UGT1A1; inhibitor 25 μM): 53 (0) % | % of control metabolism, raloxifene G2 (UGT1A1; inhibitor 25 μM): 72 (1) % | % of control metabolism, raloxifene G1 (UGT1A1; inhibitor 50 μM): 33 (1) % | % of control metabolism, raloxifene G2 (UGT1A1; inhibitor 50 μM): 58 (3) %
